Columns and labels:
Assay type in all cases: cell-based
Human TRPML3 = molecular target: T1, Human TRPML3 (Homo sapiens, UniProt Q8TDD5); assay: Fluorescent TRPML3 assay (as for TRPML1); details: fluorescent calcium assay as for TRPML1, TRPML3 subtype
T1 construct: expressed in transfected cells
T1 sequence (Q8TDD5 1-553): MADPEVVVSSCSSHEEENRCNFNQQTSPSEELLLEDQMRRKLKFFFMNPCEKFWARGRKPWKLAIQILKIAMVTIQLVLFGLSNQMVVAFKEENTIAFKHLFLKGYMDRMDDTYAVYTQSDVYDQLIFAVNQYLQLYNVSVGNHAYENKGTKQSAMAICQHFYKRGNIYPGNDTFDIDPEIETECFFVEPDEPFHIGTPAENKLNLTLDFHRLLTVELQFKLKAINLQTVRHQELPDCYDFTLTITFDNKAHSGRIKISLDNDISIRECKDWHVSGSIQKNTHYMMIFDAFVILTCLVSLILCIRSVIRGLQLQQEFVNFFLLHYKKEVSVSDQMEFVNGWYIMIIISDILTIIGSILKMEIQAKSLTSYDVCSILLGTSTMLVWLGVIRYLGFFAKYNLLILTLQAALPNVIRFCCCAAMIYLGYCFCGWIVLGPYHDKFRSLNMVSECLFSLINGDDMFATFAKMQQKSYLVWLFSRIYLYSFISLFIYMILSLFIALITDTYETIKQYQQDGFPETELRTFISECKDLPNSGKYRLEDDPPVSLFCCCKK
Protocol: (§1) HEK-293 Trex cells were stably transfected with a construct consisting of the human coding sequence for TRPML1 cloned into the tet-inducible plasmid pCDNA5 T/O. Mutations were introduced into the TRPML1 sequence to facilitate expression on the cell surface (Silvia Vergarajauregui, Rosa Puertollano Traffic. 2006 March; 7(3): 337-353). Briefly, the cells are cultured in 150 mm round tissue culture dishes containing 20 mL of media. The day before the assay the cells are rinsed with DPBS-Ca-Mg and then treated briefly with Trypsin-EDTA. The Trypsin-EDTA is diluted with growth media, and cells are counted. 38×10^6 cells are re-plated into 150 mm round tissue culture dishes in media containing 0.5 μg/mL doxycycline to induce expression of hTRPML1.
(§2) The day of the experiment cells are lifted from the plates as above and collected by centrifugation. The cells are then suspended in dye loading buffer consisting of Ringer's solution supplemented with 0.1% Pluronic Acid and 1 micromolar Fluo4-AM dye. Cells are loaded for ~60 minutes in the dark with occasional mixing. The cells are collected by centrifugation, the loading media aspirated, and the cells resuspended in 25 mL Ringer's solution and incubated ~60 minutes in the dark. The cells are again collected by centrifugation, rinsed in Ringer's Solution and resuspended to 0.2×10^6 cells/mL in modified Ringer's solution containing 10 mM calcium.
(§3) Compounds are dissolved to a concentration of 10 millimolar with DMSO. Compound plates are created by dispensing compounds into 384 well black wall clear bottom plates (Greiner 781091). Positive and negative controls are included on each plate. Typically, different amounts of each compound are tested ranging from 100 nanoMoles (20 micromolar final concentration) decreasing in half-log steps to 31 picoMoles (6 nanomolar final concentration). Each concentration is typically tested in triplicate.
(§4) 50 microliters of dye-loaded cells are dispensed into each well of the compound assay plate created above. The fluorescence in each well is then determined with an excitation wavelength of 480 nm and an emission wavelength of 540 nm using either a Molecular Devices SpectraMax multimode plate reader or a Hamamatsu FDSS/uCell plate imager.
(§5) The resulting fluorescence for each well is exported as an ascii file and loaded into our LIMS for analysis. The percent activity of each compound at each concentration is determined by comparison to the positive and negative control wells included in each plate.
(§6) Assays for TRPML2 and TRPML3 were performed as above for TRPML1, by substituting the appropriate TRPML2 or TRPML3 subtype for the TRPML1.
(§7) EC50 values were calculated using a non-linear regression of Prism. In the table, “A” indicates an EC50 of less than 100 nM, “B” indicates an EC50 range from 100 nM to 500 nM: “C” indicates an EC50 range from 500 nM to 2 μM; and “D” indicates an EC50 greater than 2 μM.

Human TRPML2 = molecular target: T2, Human TRPML2 (Homo sapiens, UniProt Q8IZK6); assay: Fluorescent TRPML2 assay (as for TRPML1); details: fluorescent calcium assay as for TRPML1, TRPML2 subtype
T2 construct: expressed in transfected cells
T2 sequence (Q8IZK6 1-566): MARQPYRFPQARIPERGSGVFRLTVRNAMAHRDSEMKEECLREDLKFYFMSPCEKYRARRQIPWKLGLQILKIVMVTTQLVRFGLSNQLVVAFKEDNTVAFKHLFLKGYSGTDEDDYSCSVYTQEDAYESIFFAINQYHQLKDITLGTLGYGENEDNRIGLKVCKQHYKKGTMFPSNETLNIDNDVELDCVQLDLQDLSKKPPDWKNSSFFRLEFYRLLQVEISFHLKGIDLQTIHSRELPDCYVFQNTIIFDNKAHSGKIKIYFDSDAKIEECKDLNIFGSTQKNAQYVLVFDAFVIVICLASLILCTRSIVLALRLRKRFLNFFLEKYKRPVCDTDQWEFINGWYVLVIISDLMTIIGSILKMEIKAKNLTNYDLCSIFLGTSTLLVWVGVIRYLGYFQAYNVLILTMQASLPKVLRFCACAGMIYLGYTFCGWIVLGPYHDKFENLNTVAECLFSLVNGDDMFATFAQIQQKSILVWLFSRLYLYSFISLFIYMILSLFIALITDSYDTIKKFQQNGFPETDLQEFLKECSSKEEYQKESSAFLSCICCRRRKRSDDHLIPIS
Protocol: as §1, §2, §3, §4, §5, §6, §7

Human TRPML1 = Human TRPML1 (Homo sapiens, UniProt Q9GZU1, L15A/L16A/L577A/L578A); assay: Fluorescent TRPML1 assay (Fluo4-AM, HEK-293 Trex cells expressing hTRPML1); details: fluorescent calcium assay, doxycycline-induced hTRPML1
Protocol: Example 27. Fluorescent TRPML Assays
as §1, §2, §3, §4, §5, §7

Sequence of Human TRPML1 (Q9GZU1 whole entry L15A/L16A/L577A/L578A): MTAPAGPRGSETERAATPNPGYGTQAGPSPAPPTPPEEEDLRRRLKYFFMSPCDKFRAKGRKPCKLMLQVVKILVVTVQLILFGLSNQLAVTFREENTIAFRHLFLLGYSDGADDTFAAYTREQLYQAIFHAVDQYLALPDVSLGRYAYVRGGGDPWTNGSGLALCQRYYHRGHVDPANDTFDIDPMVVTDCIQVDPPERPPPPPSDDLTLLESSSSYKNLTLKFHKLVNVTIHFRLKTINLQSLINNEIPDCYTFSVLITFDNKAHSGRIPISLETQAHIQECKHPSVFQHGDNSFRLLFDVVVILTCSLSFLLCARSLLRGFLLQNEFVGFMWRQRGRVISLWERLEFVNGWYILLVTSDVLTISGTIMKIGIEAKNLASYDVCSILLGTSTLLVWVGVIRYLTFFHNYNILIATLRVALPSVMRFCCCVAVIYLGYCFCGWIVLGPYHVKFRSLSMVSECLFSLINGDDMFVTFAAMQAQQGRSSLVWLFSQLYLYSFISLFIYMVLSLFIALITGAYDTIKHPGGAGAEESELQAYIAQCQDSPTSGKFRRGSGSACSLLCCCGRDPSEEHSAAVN

| Structure (SMILES) | EC50 (Human TRPML3) [nM] | EC50 (Human TRPML2) [nM] | EC50 (Human TRPML1) [nM] |
| --- | --- | --- | --- |
| C[C@@H]1CN(c2ncnc3c2c(-c2ccccc2)cn3-c2cc(C#N)ccn2)[C@@H](C)CN1C(=O)C(O)(C(F)(F)F)C(F)(F)F [Compound 110, 2-(4-((2S,5R)-2,5-dimethyl-4-(3,3,3-trifluoro-2-hydroxy-2-(trifluoromethyl)propanoyl)piperazin-1-yl)-5-phenyl-7H-pyrrolo[2,3-d]pyrimidin-7-yl)isonicotinonitrile] | 100 to 500 | > 2000 | < 100 |
| CCOC(C)(C)C(=O)N1C[C@H](C)N(c2ncnc3c2c(C2CC2)cn3-c2cc(C#N)ccn2)C[C@H]1C [Compound 172, 2-(5-cyclopropyl-4-((2S,5R)-4-(2-ethoxy-2-methylpropanoyl)-2,5-dimethylpiperazin-1-yl)-7H-pyrrolo[2,3-d]pyrimidin-7-yl)isonicotinonitrile] | 500 to 2000 | 500 to 2000 | < 100 |
| C[C@@H]1CN(c2ncnc3c2c(-c2ccccc2F)cn3-c2cc(C#N)ccn2)[C@@H](C)CN1C(=O)C(C)(C)OCC(F)(F)F [Compound 165, 2-(4-((2S,5R)-2,5-dimethyl-4-(2-methyl-2-(2,2,2-trifluoroethoxy)propanoyl)piperazin-1-yl)-5-(2-fluorophenyl)-7H-pyrrolo[2,3-d]pyrimidin-7-yl)isonicotinonitrile] | < 100 | < 100 | < 100 |
| C[C@@H]1CN(c2ncnc3c2c(-c2ccccc2F)cn3-c2cc(C#N)ccn2)[C@@H](C)CN1C(=O)CC(C)(C)O [Compound 158, 2-(5-(2-fluorophenyl)-4-((2S,5R)-4-(3-hydroxy-3-methylbutanoyl)-2,5-dimethylpiperazin-1-yl)-7H-pyrrolo[2,3-d]pyrimidin-7-yl)isonicotinonitrile] | < 100 | > 2000 | 100 to 500 |
| C[C@@H]1CN(c2ncnc3c2c(-c2ccncc2)cn3-c2cc(C#N)ccn2)[C@@H](C)CN1C(=O)C1(O)CCCC1 [Compound 150, 2-(4-((2S,5R)-4-(1-hydroxycyclopentane-1-carbonyl)-2,5-dimethylpiperazin-1-yl)-5-(pyridin-4-yl)-7H-pyrrolo[2,3-d]pyrimidin-7-yl)isonicotinonitrile] | 100 to 500 | 500 to 2000 | < 100 |
| Cc1cnccc1-c1cn(-c2cc(C#N)ccn2)c2ncnc(N3C[C@@H](C)N(C(=O)C(C)(C)O)C[C@@H]3C)c12 [Compound 147, 2-(4-((2S,5R)-4-(2-hydroxy-2-methylpropanoyl)-2,5-dimethylpiperazin-1-yl)-5-(3-methylpyridin-4-yl)-7H-pyrrolo[2,3-d]pyrimidin-7-yl)isonicotinonitrile] | 500 to 2000 | > 2000 | 500 to 2000 |
| CCOC(C)(C)C(=O)N1C[C@H](C)N(c2ncnc3c2c(-c2ccccc2F)cn3-c2cc(C#N)ccn2)C[C@H]1C [Compound 164, 2-(4-((2S,5R)-4-(2-ethoxy-2-methylpropanoyl)-2,5-dimethylpiperazin-1-yl)-5-(2-fluorophenyl)-7H-pyrrolo[2,3-d]pyrimidin-7-yl)isonicotinonitrile] | < 100 | < 100 | < 100 |
| CCOC(C)(C)C(=O)N1C[C@H](C)N(c2ncnc3c2c(-c2ccncc2)cn3-c2cc(C#N)ccn2)C[C@H]1C [Compound 171, -(4-((2S,5R)-4-(2-ethoxy-2-methylpropanoyl)-2,5-dimethylpiperazin-1-yl)-5-(pyridin-4-yl)-7H-pyrrolo[2,3-d]pyrimidin-7-yl)isonicotinonitrile] | 500 to 2000 | > 2000 | 100 to 500 |
| C[C@@H]1CN(c2ncnc3c2c(-c2ccccc2F)cn3-c2cc(C#N)ccn2)[C@@H](C)CN1C(=O)C1(O)CC1 [Compound 157, 2-(5-(2-fluorophenyl)-4-((2S,5R)-4-(1-hydroxycyclopropane-1-carbonyl)-2,5-dimethylpiperazin-1-yl)-7H-pyrrolo[2,3-d]pyrimidin-7-yl)isonicotinonitrile] | > 2000 |  | > 2000 |
| C[C@H]1CN(C(=O)C(C)(C)O)[C@H](CO)CN1c1ncnc2c1c(-c1ccccc1F)cn2-c1cc(C#N)ccn1 [Compound 168, 2-(5-(2-fluorophenyl)-4-((2S,5S)-4-(2-hydroxy-2-methylpropanoyl)-5-(hydroxymethyl)-2-methylpiperazin-1-yl)-7H-pyrrolo[2,3-d]pyrimidin-7-yl)isonicotinonitrile] | > 2000 |  | 500 to 2000 |
| C[C@@H]1CN(c2ncnc3c2c(-c2ccccc2F)cn3-c2cc(C#N)ccn2)[C@@H](C)CN1C(=O)C(C)(O)CO (stereo partly drawn) [Compound 167, 2-(4-((2S,5R)-4-(2,3-dihydroxy-2-methylpropanoyl)-2,5-dimethylpiperazin-1-yl)-5-(2-fluorophenyl)-7H-pyrrolo[2,3-d]pyrimidin-7-yl)isonicotinonitrile] | 500 to 2000 |  | 100 to 500 |
| C[C@@H]1CN(c2ncnc3c2c(-c2ccccc2)cn3-c2cc(C#N)ccn2)[C@@H](C)CN1C(=O)C1(O)CN(C)C1 [Compound 130, 2-(4-((2S,5R)-4-(3-hydroxy-1-methylazetidine-3-carbonyl)-2,5-dimethylpiperazin-1-yl)-5-phenyl-7H-pyrrolo[2,3-d]pyrimidin-7-yl)isonicotinonitrile] | > 2000 |  | 500 to 2000 |
| C[C@H]1CN(c2ncnc3c2c(-c2ccccc2F)cn3-c2cc(C#N)ccn2)[C@@H](C)CN1C(=O)C(C)(C)O [Compound 169, 2-(5-(2-fluorophenyl)-4-((2S,5S)-4-(2-hydroxy-2-methylpropanoyl)-2,5-dimethylpiperazin-1-yl)-7H-pyrrolo[2,3-d]pyrimidin-7-yl)isonicotinonitrile] | > 2000 |  | 500 to 2000 |
| C[C@H]1CN(C(=O)C2(O)CCC2)CCN1c1ncnc2c1c(-c1ccccc1F)cn2-c1cc(C#N)ccn1 [Compound 117, (S)-2-(5-(2-fluorophenyl)-4-(4-(1-hydroxycyclobutane-1-carbonyl)-2-methylpiperazin-1-yl)-7H-pyrrolo[2,3-d]pyrimidin-7-yl)isonicotinonitrile] | 500 to 2000 |  | 500 to 2000 |
| C[C@@H]1CN(c2nccc3c2c(-c2ccncc2)cn3-c2cccc(C#N)c2)[C@@H](C)CN1C(=O)C(C)(C)O [Compound 145, 3-(4-((2S,5R)-4-(2-hydroxy-2-methylpropanoyl)-2,5-dimethylpiperazin-1-yl)-3-(pyridin-4-yl)-1H-pyrrolo[3,2-c]pyridin-1-yl)benzonitrile] | > 2000 |  | > 2000 |

Source: patent US20260285866A1, “MODULATORS OF TRPML, THEIR COMPOSITIONS AND METHODS OF USE” (Caraway Therapeutics, Inc., priority 2024, published 2026)
